# Test results: ChEMBL document CHEMBL1833942, “6-arylcoumarins as novel nonsteroidal type progesterone antagonists: an example with receptor-binding-dependent fluorescence” (J Med Chem, 2011)
# The source made the active and inactive calls. No cut-off for these calls is given here.
# Key:
# [1] = biological target: T1, Progesterone receptor (Homo sapiens, UniProt P06401); assay: Antagonist activity at human progesterone receptor in T47D cells after 24 hrs by alkaline phosphatase assay; assay type: functional, cell-based
# T1 sequence (P06401 whole entry): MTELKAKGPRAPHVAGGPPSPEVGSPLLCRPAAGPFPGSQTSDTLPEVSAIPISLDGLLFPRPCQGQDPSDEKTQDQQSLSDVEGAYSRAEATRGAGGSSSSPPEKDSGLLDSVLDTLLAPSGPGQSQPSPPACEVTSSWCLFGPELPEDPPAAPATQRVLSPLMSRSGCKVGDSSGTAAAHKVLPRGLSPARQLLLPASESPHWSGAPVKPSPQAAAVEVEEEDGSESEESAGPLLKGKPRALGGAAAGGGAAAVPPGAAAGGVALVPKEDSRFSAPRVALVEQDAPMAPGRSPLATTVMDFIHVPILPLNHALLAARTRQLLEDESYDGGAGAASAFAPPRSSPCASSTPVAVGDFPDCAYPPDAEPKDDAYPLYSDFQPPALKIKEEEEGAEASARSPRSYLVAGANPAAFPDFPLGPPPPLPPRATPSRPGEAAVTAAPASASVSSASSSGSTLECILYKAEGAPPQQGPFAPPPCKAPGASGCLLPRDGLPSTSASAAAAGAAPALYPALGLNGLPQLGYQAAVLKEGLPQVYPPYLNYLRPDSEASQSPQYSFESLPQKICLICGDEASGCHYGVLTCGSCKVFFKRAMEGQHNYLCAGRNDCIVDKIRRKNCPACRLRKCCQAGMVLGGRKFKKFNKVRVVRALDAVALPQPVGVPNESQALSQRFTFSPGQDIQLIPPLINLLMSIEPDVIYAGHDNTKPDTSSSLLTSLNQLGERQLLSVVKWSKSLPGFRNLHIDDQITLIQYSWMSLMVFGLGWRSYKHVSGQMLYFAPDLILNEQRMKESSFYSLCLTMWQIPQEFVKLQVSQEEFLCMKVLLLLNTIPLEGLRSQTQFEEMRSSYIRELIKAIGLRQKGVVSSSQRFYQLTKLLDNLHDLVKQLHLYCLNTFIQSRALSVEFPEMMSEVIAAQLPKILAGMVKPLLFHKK
# [2] = biological target: T2, Progesterone receptor (Homo sapiens) (UniProt P06401); assay: Antagonist activity at human progesterone receptor expressed in CHO cells at 10^-5 M after 24 hrs by luciferase reporter gene assay; assay type: functional, cell-based
# T2 sequence (whole entry): T1 sequence (P06401 whole entry)
# [3] = biological target: T1, Progesterone receptor; assay: Displacement of [1,2,6,7-3H]PG from human PR-LBD after 24 hrs by liquid scintillation counting
# [4] = biological target: T2, Progesterone receptor (Homo sapiens); assay: Antagonist activity at human progesterone receptor expressed in CHO cells at 10^-7 M after 24 hrs by luciferase reporter gene assay; assay type: functional, cell-based
# [5] = biological target: T2, Progesterone receptor (Homo sapiens); assay: Antagonist activity at human progesterone receptor expressed in CHO cells at 10^-6 M after 24 hrs by luciferase reporter gene assay; assay type: functional, cell-based
# [6] = biological target: T3, Glucocorticoid receptor (Homo sapiens, UniProt P04150); assay: Displacement of [3H]-dexamethasone from human recombinant glucocorticoid receptor after 18 hrs by liquid scintillation counting
# T3 sequence (P04150 whole entry): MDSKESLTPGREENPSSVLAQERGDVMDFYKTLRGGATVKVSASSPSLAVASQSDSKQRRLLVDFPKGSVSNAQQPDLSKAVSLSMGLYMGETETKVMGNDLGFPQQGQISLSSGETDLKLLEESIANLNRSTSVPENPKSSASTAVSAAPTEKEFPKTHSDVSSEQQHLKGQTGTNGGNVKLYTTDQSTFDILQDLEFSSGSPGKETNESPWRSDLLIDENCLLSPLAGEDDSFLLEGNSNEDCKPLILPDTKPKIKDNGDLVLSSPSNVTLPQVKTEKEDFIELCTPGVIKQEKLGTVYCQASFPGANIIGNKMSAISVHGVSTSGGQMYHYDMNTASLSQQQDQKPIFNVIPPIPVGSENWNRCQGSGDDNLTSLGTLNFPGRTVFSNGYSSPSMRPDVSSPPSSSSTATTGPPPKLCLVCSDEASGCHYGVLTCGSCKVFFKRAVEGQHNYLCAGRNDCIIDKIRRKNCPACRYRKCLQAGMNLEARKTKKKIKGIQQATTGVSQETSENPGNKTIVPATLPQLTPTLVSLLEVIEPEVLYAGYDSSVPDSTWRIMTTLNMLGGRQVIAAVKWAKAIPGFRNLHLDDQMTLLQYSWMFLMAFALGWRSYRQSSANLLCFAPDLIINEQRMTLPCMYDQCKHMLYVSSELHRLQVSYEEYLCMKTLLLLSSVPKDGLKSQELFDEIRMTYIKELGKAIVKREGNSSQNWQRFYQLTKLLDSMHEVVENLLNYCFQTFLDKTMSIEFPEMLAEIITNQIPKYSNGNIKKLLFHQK
# [7] = biological target: T4, Androgen receptor (Homo sapiens, UniProt P10275); assay: Displacement of [3H]DHT from human recombinant androgen receptor-LBD expressed in Escherichia coli after 18 hrs by liquid scintillation counting
# T4 sequence (P10275 whole entry): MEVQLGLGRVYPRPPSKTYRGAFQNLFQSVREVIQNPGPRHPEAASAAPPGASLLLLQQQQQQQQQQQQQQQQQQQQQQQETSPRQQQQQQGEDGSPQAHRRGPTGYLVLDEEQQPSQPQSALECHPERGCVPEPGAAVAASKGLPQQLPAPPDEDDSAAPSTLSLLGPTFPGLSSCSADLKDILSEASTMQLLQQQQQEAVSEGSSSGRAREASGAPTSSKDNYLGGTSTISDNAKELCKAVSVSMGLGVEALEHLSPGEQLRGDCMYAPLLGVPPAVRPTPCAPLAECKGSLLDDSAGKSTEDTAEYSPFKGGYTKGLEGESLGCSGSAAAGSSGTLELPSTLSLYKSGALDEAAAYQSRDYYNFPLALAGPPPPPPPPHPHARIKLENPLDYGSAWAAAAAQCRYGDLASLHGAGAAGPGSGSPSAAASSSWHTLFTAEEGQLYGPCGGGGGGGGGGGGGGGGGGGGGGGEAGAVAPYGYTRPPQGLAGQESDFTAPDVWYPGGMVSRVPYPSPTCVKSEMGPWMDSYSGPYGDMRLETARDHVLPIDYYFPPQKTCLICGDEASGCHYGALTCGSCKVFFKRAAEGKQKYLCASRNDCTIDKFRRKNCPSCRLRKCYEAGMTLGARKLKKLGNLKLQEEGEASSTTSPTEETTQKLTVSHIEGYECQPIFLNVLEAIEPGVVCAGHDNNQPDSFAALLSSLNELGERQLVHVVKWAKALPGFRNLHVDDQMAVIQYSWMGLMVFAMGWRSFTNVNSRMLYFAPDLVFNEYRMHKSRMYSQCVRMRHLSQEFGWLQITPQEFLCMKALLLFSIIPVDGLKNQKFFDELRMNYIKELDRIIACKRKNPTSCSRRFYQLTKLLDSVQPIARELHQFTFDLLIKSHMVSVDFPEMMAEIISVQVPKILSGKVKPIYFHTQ
# [8] = biological target: T5, Estrogen receptor (Homo sapiens) (UniProt P03372); assay: Binding affinity at human estrogen receptor by fluorescence assay
# T5 sequence (whole entry): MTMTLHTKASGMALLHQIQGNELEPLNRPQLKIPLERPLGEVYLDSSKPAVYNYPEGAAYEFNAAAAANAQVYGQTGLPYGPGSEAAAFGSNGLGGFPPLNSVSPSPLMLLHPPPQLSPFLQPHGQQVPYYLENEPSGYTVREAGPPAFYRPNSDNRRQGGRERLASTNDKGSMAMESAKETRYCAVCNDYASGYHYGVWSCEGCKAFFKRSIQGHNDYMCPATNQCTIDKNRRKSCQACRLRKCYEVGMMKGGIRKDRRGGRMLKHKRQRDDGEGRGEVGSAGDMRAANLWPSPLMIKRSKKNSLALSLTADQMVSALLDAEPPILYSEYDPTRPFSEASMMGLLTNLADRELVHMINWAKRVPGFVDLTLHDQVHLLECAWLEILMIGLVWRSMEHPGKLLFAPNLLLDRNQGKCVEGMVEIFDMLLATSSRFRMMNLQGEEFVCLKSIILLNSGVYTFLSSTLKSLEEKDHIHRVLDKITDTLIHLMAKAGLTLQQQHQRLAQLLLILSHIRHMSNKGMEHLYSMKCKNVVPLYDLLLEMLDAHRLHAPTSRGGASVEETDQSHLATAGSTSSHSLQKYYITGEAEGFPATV
# [9] = biological target: T2, Progesterone receptor (Homo sapiens); assay: Binding affinity to human PR LBD by fluorescence assay
# [10] = biological target: T2, Progesterone receptor (Homo sapiens); assay: Binding affinity to human PR LBD by fluorescence assay in presence of progesterone
IC50 [1] [nM],SMILES,also measured
2590,CN(C)c1ccc(-c2cc3ccc(=O)oc3cc2O)cc1,–
290,N#Cc1ccc(-c2ccc3oc(=O)ccc3c2)cc1,–
260,CN(C)c1cc2oc(=O)ccc2cc1-c1cccc(C#N)c1,–
540,O=c1ccc2cc(-c3cccs3)ccc2o1,Activity [2]: Active; IC50 [3]: 10000 nM; Activity [4]: Active; Activity [5]: Active
360,CN(C)c1cc2oc(=O)ccc2cc1-c1ccccc1,–
1280,O=c1ccc2cc(-c3ccco3)ccc2o1,–
380,CCN(CC)c1cc2oc(=O)ccc2cc1-c1cccc(C#N)c1,–
220,CCN(CC)c1cc2oc(=O)ccc2cc1-c1cccs1,IC50 [6]: 4960 nM; Activity [2]: Active; IC50 [3]: 1240 nM; Activity [4]: Active; Activity [5]: Active; IC50 [7]: 9700 nM
4070,CCOC(=O)c1cc2cc(-c3ccccc3)c(N(CC)CC)cc2oc1=O,–
210,O=c1ccc2cc(-c3ccc(F)cc3)ccc2o1,–
560,O=c1ccc2cc(-c3cc(F)cc(F)c3)ccc2o1,–
510,CCN(CC)c1cc2oc(=O)ccc2cc1-c1ccc(N)c([N+](=O)[O-])c1,–
390,CCN(CC)c1cc2oc(=O)ccc2cc1-c1ccc(N(C)C)cc1,–
860,CCN(CC)c1cc2oc(=O)ccc2cc1-c1ccc([N+](=O)[O-])cc1,–
630,CCN(CC)c1cc2oc(=O)ccc2cc1-c1ccc(F)cc1,–
770,CCN(CC)c1cc2oc(=O)ccc2cc1-c1ccc(Cl)cc1,–

IC50 [1] [nM],SMILES,also measured
400,CCN(CC)c1cc2oc(=O)ccc2cc1-c1ccc(C(C)=O)cc1,–
470,CN(C)c1cc2oc(=O)ccc2cc1-c1ccc(F)cc1,–
3340,COc1cc2oc(=O)ccc2cc1-c1ccc(N(C)C)cc1,–
1280,O=c1ccc2cc(-c3ccccc3)c(O)cc2o1,–
880,COc1cc2oc(=O)ccc2cc1-c1ccccc1,–
65,Cn1c(C#N)ccc1-c1ccc2oc(=O)ccc2c1,Activity [2]: Active; IC50 [3]: 15200 nM; Activity [4]: Active; Activity [5]: Active
120,O=c1ccc2cc(-c3ccc(Cl)s3)ccc2o1,Activity [2]: Active; IC50 [3]: 50500 nM; Activity [4]: Active; Activity [5]: Active
310,CN(C)c1ccc(-c2ccc3oc(=O)ccc3c2)cc1,–
500,CCN(CC)c1cc2oc(=O)ccc2cc1-c1ccc(C#N)cc1,–
1110,N#Cc1cccc(-c2ccc3oc(=O)ccc3c2)c1,–
250,CN(C)c1cc2oc(=O)ccc2cc1-c1ccc(C#N)cc1,–
500,CCN(CC)c1cc2oc(=O)ccc2cc1-c1ccccc1,IC50 [6]: 3540 nM; Activity [8]: inactive; Activity [2]: Active; IC50 [3]: 1420 nM; Activity [9]: Active; Activity [4]: Active; Activity [10]: inactive; Activity [5]: Active; IC50 [7]: 10000 nM
27900,O=c1ccc2cc(-c3cccc(-c4cccnc4)c3)ccc2o1,–
190,O=c1ccc2cc(-c3cccc(C(F)(F)F)c3)ccc2o1,–
510,O=c1ccc2cc(-c3ccccc3)ccc2o1,–
470,CCN(CC)c1cc2oc(=O)ccc2cc1-c1ccc(NC(C)=O)cc1,–
